# Measured values reported in patent publication US20090270476A1, “PHARMACEUTICAL COMPOSITION FOR TREATMENT OR PREVENTION OF NEPHRITIS AND MANUFACTURING METHOD THEREOF” (priority 2005, published 2009).
# “Also recorded” adds a separate entry of the source.
# Experiments:
# Assay type in all cases: in vivo, Wister rats
# [1] = tested on: nephritis model rat; assay: Effects of orniplabin on urinary protein, lipid peroxide in blood and organomegaly in nephritis model rat
# Procedure: Three-week-old male Wister rats (Charles River) were raised for 6 days with pellet diet (CE-2, Nihon Crea) and then raised with the 20% casein diet for 5 days to be subjected to the experiment. The animals were raised at approximately 22° C., with relative humidity […] under lighting from 8:00 to 20:00.
# (§1) 0.6 mL of Anti-rat-glomerular basement membrance rabbit serum was administered into the caudal vein. Next day rabbit γ-globulin (Sigma), and 8 mg/0.2 mL Freund's complete adjuvant (Wako Junyaku) were subcutaneously injected into hinder leg's footpad to cause nephritis (nephritis model rat).
# Since anti-serum was injected, the body weight and feed intake were measured every morning and urinary proteins of 24-hour urine was measured every other day, specifically urine was collected in a flask from 9 AM of the day before to 9 AM of the day and the measurement was carried out using commercial protein measurement kit (Bio-Rad, Protein Assay, Bio-Rad). (Refer to Biosci. Biotechnol. Biochem., 65, 1155-1162 (2001))
# (§2) The urinary proteins were measured three days after the injection of anti-serum and the rats were grouped according to the measurement values. An orniplabin solution equivalent to 5 mg/Kg concentration was intrapenitoneally injected everyday to the orniplabin administration group since then. Nothing was injected to the control group. Rats of respective groups were dissected to remove blood, liver and kidneys 14 days after nephritis was induced, and weights of the removed materials were measured. Further lipid peroxides of a part of blood obtained were measured using a commercial measurement kit (Wako Junyaku). The normal group represents the untreated group, the control group represents—the nephritis-induced group and SMTP group represents the orniplabin-injected group. Student's t-test of significant difference between two groups was carried out as the level significance is 0.05. Tukey's multiple comparison method was used for the testing of significance between three groups. The data associated with the amount of urinary proteins and the weight of organs are treated with the scale per 100 g of body weight as a benchmark.
# [2] = tested on: nephritis model rat; assay: Effects of orniplabin administration on plasma components in nephritis model rat
# Procedure: as §1, §2
# Further effects of orniplabin administration on plasma components were investigated by measuring a variety of concentrations of plasma component, (Normal group, n=6; control group, n=10; and orniplabin-injected group, n=6) The following plasma components were measured; lactate dehydrogenase (LD; PureAuto S LD), […] amino transferase (AST AutoSera S AST), alanine aminotransferase (ALT: AutoSera S ALT), creatine phosphate kinase (CPK; PureAuto S CK), alkaline phosphatase (ALP; AutoSera S ALP), γ-glutamyl transpeptidase (γ-GTP; PureAuto S γ-GT), total bilirubin (BIL: AutoSera BIL-2), glucose (GLU; PureAuto S GLU-R), triglyceride (TG; AutoSera S TG-N), total cholesterol (T-CHO; Choletest CHO), phospholipid (PL; PureAuto S PL), total protein (TP; AutoSera TP), urea nitrogen (UN; PureAuto S UN), albumin (ALB; AutoSera ALB), calcium (CA; AutoSera CA), inorganic phosphoric acid (IP; Clini mate IP-2), (Daiichi Chemical), creatinine (CRE-S; AccursAuto CRE, Sinotest), acetoacetic acid (ACAC; Ketone Test A Sanwa liquid, Sanwa Science Laboratories), 3-hydroxy butyric acid (OHBA; Ketone Test B Sanwa liquidA Sanwa Science Laboratories), free fafty acids (NEFA; AutoSera R NEFA (Daiichi Chemical) and HDL cholesterol (HDL; Cholest-R N HDL (Daichi Chemical) were used to measure. Further Hitachi Amino acid automatic analyzer 7180 (Hitachi) was used.
# The comparison results between the control group and the orniplabin-injected group, and the normal group of which average value is as 1 are shown in FIG. 5 to FIG. 8.
# [3] = tested on: nephritis model rat; assay: Observation of PAS-stained kidney histologic sections and nephritis score
# Procedure: Section samples were prepared from three animals selected according to the variation of urinary protein in respective groups. Periodic acid Schiff (PAS) staining was conducted on the kidney histologic section.
# A procedure for PAS staining was; slicing a sampler washing the sample with water after paraffin-removal, soaking the sample in a solution of 1% periodic acid for 10 minutes, and washing again the sample with water; soaking the histologic section prepared in Schiff reagent for 10 to 15 minutes, washing the sample in a staining bat three times for 3 minutes, total for 9 minutes, and washing the sample with water; and then staining the sample with hematoxylin for 1 minute, washing the sample with warm water for 10 minutes, dehydrating and penetrating the sample and then sealing the sample.
# Observation of the histologic sample was conducted on renal glomerulus using a microscope with 200× magnifications. The bar in Figs is corresponding to 50 μm.
# Fifty (50) glomeruli every three samples of each group were ranked according to damaged levels. The ranks were from normal (rank 1) to the most progressed damage (rank 5) and five grades according to damages were given to provide a score. The average of the scores was decided as the score of the sample (nephritis score).
# [4] = 5 mg/Kg intraperitoneal everyday
# [5] = 5 mg/Kg intraperitoneal everyday, 14 days after nephritis induction, weight per 100 g body weight
# [6] = decrease by induction of nephritis
# [7] = orniplabin-injected group vs control group
# [8] = renal glomerulus, PAS staining, orniplabin-injected group
smiles,measurement,setting,value
CC(C)=CCC/C(C)=C/CC[C@@]1(C)Oc2c(c(O)cc3c2CN(CCC[C@@H](C(=O)O)N2Cc4c(cc(O)c5c4O[C@](C)(CC/C=C(\C)CCC=C(C)C)[C@H](O)C5)C2=O)C3=O)C[C@H]1O [orniplabin],food intake,[1]; [4],without affecting
same,increase of body weight,[1]; [4],without affecting
same,urinary proteins,"[1]; 5 mg/Kg intraperitoneal everyday from day 3, 24-hour urine, vs control group",decreased
same,lipid peroxides in serum,"[1]; 5 mg/Kg intraperitoneal everyday, 14 days after nephritis induction, vs control group",decreased
same,hypertrophy of kidneys,[1]; [5],suppressed
same,hypertrophy of liver,[1]; [5],suppressed
same,concentration of BIL in plasma,[2]; [6],prevented or these concentrations were recovered
same,concentration of CA in plasma,[2]; [6],prevented or these concentrations were recovered
same,concentration of GLU in plasma,[2]; [6],prevented or these concentrations were recovered
same,concentration of IP in plasma,[2]; [6],prevented or these concentrations were recovered
same,concentration of TP (total proteins) in plasma,[2]; orniplabin-injected group,recovered to the normal level
same,concentration of ACAC in plasma,[2]; [7],lower than that of the control group
same,concentration of ALB in plasma,[2]; [7],almost not different
same,concentration of ALP in plasma,[2]; [7],not significantly different
same,concentration of ALT in plasma,[2]; [7],not significantly different
same,concentration of AST in plasma,[2]; [7],not significantly different
same,concentration of CRE-S in plasma,[2]; [7],almost not different
same,concentration of HDL in plasma,[2]; [7],in decreasing trend
same,concentration of LD in plasma,[2]; [7],not significantly different
same,concentration of OHBA in plasma,[2]; [7],prevented or these concentrations were recovered; also recorded: higher than that of the control group
same,concentration of OK in plasma,[2]; [7],not significantly different
same,concentration of PL in plasma,[2]; [7],in decreasing trend
same,concentration of T-CHO in plasma,[2]; [7],in decreasing trend
same,concentration of TG in plasma,[2]; [7],significantly decreased
same,concentration of UN in plasma,[2]; [7],almost not different
same,concentration of γ-GTP in plasma,[2]; [7],not significantly different
same,nephritis score,"[3]; 50 glomeruli per sample, three samples, rank 1 (normal) to rank 5 (most progressed damage), control group 3.80±0.13",2.77±0.04
same,abnormal histologic hypertrophy of proximal convoluted tubule tissue,"[3]; PAS staining, orniplabin-injected group",not observed
same,crescent formation,[3]; [8],low level crescent formation
same,mesangium proliferation,[3]; [8],almost no mesangium proliferation
